# Measurements: the NIST ThermoML archive (doi:10.1007/s10765-012-1261-6)
# Several values for one entry are separate records, joined by “and”; a condition that tells them apart may be missing. Equal values may be shown once. ± gives the expanded uncertainty stated by the source.
# Details: Closed cell (Static) method
smiles,measurement,setting,value
O [water],vapor or sublimation pressure,"249.29 K, Crystal",0.07045 ± 0.02 kPa
same,vapor or sublimation pressure,"249.35 K, Crystal",0.07242 ± 0.02 kPa
same,vapor or sublimation pressure,"250.11 K, Crystal",0.08146 ± 0.02 kPa
same,vapor or sublimation pressure,"252.96 K, Crystal",0.09665 ± 0.02 kPa
same,vapor or sublimation pressure,"253.02 K, Crystal",0.1036 ± 0.02 kPa and 0.1016 ± 0.02 kPa
same,vapor or sublimation pressure,"253.59 K, Crystal",0.1049 ± 0.02 kPa
same,vapor or sublimation pressure,"257.86 K, Crystal",0.1607 ± 0.02 kPa
same,vapor or sublimation pressure,"258.04 K, Crystal",0.1642 ± 0.02 kPa and 0.1567 ± 0.02 kPa
same,vapor or sublimation pressure,"258.05 K, Crystal",0.165 ± 0.02 kPa
same,vapor or sublimation pressure,"262.84 K, Crystal",0.2552 ± 0.02 kPa
same,vapor or sublimation pressure,"262.98 K, Crystal",0.2629 ± 0.021 kPa and 0.2541 ± 0.021 kPa
same,vapor or sublimation pressure,"263 K, Crystal",0.2517 ± 0.02 kPa
same,vapor or sublimation pressure,"267.85 K, Crystal",0.4157 ± 0.021 kPa
same,vapor or sublimation pressure,"267.91 K, Crystal",0.4036 ± 0.021 kPa
same,vapor or sublimation pressure,"267.93 K, Crystal",0.392 ± 0.021 kPa
same,vapor or sublimation pressure,"267.99 K, Crystal",0.423 ± 0.021 kPa
same,vapor or sublimation pressure,"272.87 K, Liquid",0.6049 ± 0.022 kPa
same,vapor or sublimation pressure,"272.98 K, Liquid",0.6038 ± 0.022 kPa
same,vapor or sublimation pressure,"273.02 K, Liquid",0.6135 ± 0.022 kPa
same,vapor or sublimation pressure,"277.94 K, Liquid",0.8666 ± 0.023 kPa
same,vapor or sublimation pressure,"277.95 K, Liquid",0.8493 ± 0.023 kPa
same,vapor or sublimation pressure,"277.97 K, Liquid",0.8679 ± 0.023 kPa
same,vapor or sublimation pressure,"278.01 K, Liquid",0.8712 ± 0.023 kPa
same,vapor or sublimation pressure,"278.07 K, Liquid",0.8686 ± 0.023 kPa
same,vapor or sublimation pressure,"282.91 K, Liquid",1.211 ± 0.025 kPa
same,vapor or sublimation pressure,"282.94 K, Liquid",1.215 ± 0.025 kPa
same,vapor or sublimation pressure,"282.95 K, Liquid",1.197 ± 0.025 kPa
same,vapor or sublimation pressure,"283.03 K, Liquid",1.224 ± 0.025 kPa
same,vapor or sublimation pressure,"288 K, Liquid",1.687 ± 0.028 kPa
same,vapor or sublimation pressure,"292.84 K, Liquid",2.295 ± 0.033 kPa
same,vapor or sublimation pressure,"293.03 K, Liquid",2.307 ± 0.024 kPa
same,vapor or sublimation pressure,"293.1 K, Liquid",2.337 ± 0.033 kPa
same,vapor or sublimation pressure,"302.8 K, Liquid",4.162 ± 0.044 kPa
same,vapor or sublimation pressure,"303.07 K, Liquid",4.214 ± 0.038 kPa and 4.238 ± 0.048 kPa
same,vapor or sublimation pressure,"303.1 K, Liquid",4.235 ± 0.044 kPa
same,vapor or sublimation pressure,"312.8 K, Liquid",7.248 ± 0.063 kPa
same,vapor or sublimation pressure,"313.11 K, Liquid",7.367 ± 0.063 kPa
same,vapor or sublimation pressure,"313.12 K, Liquid",7.372 ± 0.064 kPa
same,vapor or sublimation pressure,"313.16 K, Liquid",7.386 ± 0.063 kPa
same,vapor or sublimation pressure,"317 K, Liquid",9.084 ± 0.08 kPa
same,vapor or sublimation pressure,"322.82 K, Liquid",12.15 ± 0.086 kPa
same,vapor or sublimation pressure,"323.13 K, Liquid",12.33 ± 0.094 kPa
same,vapor or sublimation pressure,"323.14 K, Liquid",12.33 ± 0.093 kPa
same,vapor or sublimation pressure,"323.19 K, Liquid",12.34 ± 0.086 kPa
same,vapor or sublimation pressure,"328.15 K, Liquid",15.75 ± 0.12 kPa
same,vapor or sublimation pressure,"332.83 K, Liquid",19.63 ± 0.13 kPa
same,vapor or sublimation pressure,"333.18 K, Liquid",19.94 ± 0.14 kPa and 19.95 ± 0.14 kPa
same,vapor or sublimation pressure,"333.24 K, Liquid",19.97 ± 0.13 kPa
same,vapor or sublimation pressure,"338.19 K, Liquid",25.06 ± 0.17 kPa
same,vapor or sublimation pressure,"342.81 K, Liquid",30.69 ± 0.21 kPa
same,vapor or sublimation pressure,"343.21 K, Liquid",31.24 ± 0.21 kPa
same,vapor or sublimation pressure,"343.22 K, Liquid",31.24 ± 0.21 kPa
same,vapor or sublimation pressure,"343.28 K, Liquid",31.27 ± 0.19 kPa
same,vapor or sublimation pressure,"348.23 K, Liquid",38.65 ± 0.25 kPa
same,vapor or sublimation pressure,"352.81 K, Liquid",46.65 ± 0.31 kPa
same,vapor or sublimation pressure,"353.23 K, Liquid",47.47 ± 0.31 kPa
same,vapor or sublimation pressure,"353.24 K, Liquid",47.46 ± 0.3 kPa
same,vapor or sublimation pressure,"353.31 K, Liquid",47.53 ± 0.28 kPa
same,vapor or sublimation pressure,"358.25 K, Liquid",57.93 ± 0.35 kPa
same,vapor or sublimation pressure,"362.79 K, Liquid",68.98 ± 0.47 kPa
same,vapor or sublimation pressure,"363.24 K, Liquid",70.36 ± 0.48 kPa
same,vapor or sublimation pressure,"363.26 K, Liquid",70.26 ± 0.43 kPa
same,vapor or sublimation pressure,"363.33 K, Liquid",70.34 ± 0.4 kPa
same,vapor or sublimation pressure,"368.27 K, Liquid",84.67 ± 0.49 kPa
same,vapor or sublimation pressure,"373.26 K, Liquid",101.68 ± 0.54 kPa
same,vapor or sublimation pressure,"373.28 K, Liquid",101.4 ± 0.53 kPa
same,vapor or sublimation pressure,"373.37 K, Liquid",102.01 ± 0.54 kPa
